Assay: Storage stability of MMAM in an aqueous hydrogen peroxide composition with the surfactant under test
Format: physicochemical
Conditions: 2 weight % Dowanol PnB added to the compositions of Example 1
Protocol: In this example, a number of surfactants were tested for their ability to stabilise methyl morpholinium acetonitrile methylsulphate (MMAM) in the presence of hydrogen peroxide.
The surfactant under test was added to an aqueous composition containing 1 weight % H2O2 and 1.1 weight % MMAM (1.7 weight % Sokalan BM) The active amount of surfactant in the composition was 1 weight %. In a control sample, no surfactant was added.

CCCCOCC(C)O (stereo not shown) [Dowanol PnB, n-butyl monoether of propylene glycol]
effect of solvent on stability: did not have a significant effect on stability

— patent EP1678287B1, “DISPENSER CONTAINING LIQUID BLEACHING COMPOSITION” (Reckitt Benckiser (UK) Limited, priority 2003, dated 2005)
